Data from ChEMBL document CHEMBL1201862, “PubChem BioAssay data set” (2004).
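Where inhibition never reached the appropriate level, the endpoint shown equals the highest concentration tested. Otherwise, values were interpolated linearly from a five-concentration, 48-hour dose response in 96-well plates. GI50 marks 50% less growth.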 The source made the active and inactive calls. Cut-off read from the data, not from the text of the source: active = GI50 up to about 1.1 µM and inactive = higher.

What was measured:
Assay in all cases: NCI tumour cell line growth inhibition, 48 h
786-0 = system: 786-0
A498 = system: A498
A549 = system: A549
ACHN = system: ACHN
BT-549 = system: BT-549
CAKI-1 = system: CAKI-1
CCRF-CEM = system: CCRF-CEM
COLO 205 = system: COLO 205
DLD-1 = system: DLD-1
DMS-114 = system: DMS-114
DMS-273 = system: DMS-273
DU-145 = system: DU-145
EKVX = system: EKVX
HCC 2998 = system: HCC 2998
HCT-116 = system: HCT-116
HCT-15 = system: HCT-15
HL-60 = system: HL-60
HOP-18 = system: HOP-18
HOP-62 = system: HOP-62
HOP-92 = system: HOP-92
HT-29 = system: HT-29
Hs-578T = system: Hs-578T
IGROV-1 = system: IGROV-1
K562 = system: K562
KM-20L2 = system: KM-20L2
KM12 = system: KM12
LOX IMVI = system: LOX IMVI
LXFL 529 = system: LXFL 529
M14 = system: M14
M19-MEL = system: M19-MEL
MCF7 = system: MCF7
MDA-MB-231 = system: MDA-MB-231
MDA-MB-435 = system: MDA-MB-435
MDA-N = system: MDA-N
MOLT-4 = system: MOLT-4
Malme-3M = system: Malme-3M
NCI-H226 = system: NCI-H226
NCI-H23 = system: NCI-H23
NCI-H460 = system: NCI-H460
NCI-H522 = system: NCI-H522
NCI/ADR-RES = system: NCI/ADR-RES
OVCAR-3 = system: OVCAR-3
OVCAR-4 = system: OVCAR-4
OVCAR-5 = system: OVCAR-5
OVCAR-8 = system: OVCAR-8
PC-3 = system: PC-3
RPMI-8226 = system: RPMI-8226
RXF 393 = system: RXF 393
SF-268 = system: SF-268
SF-295 = system: SF-295
SF-539 = system: SF-539
SK-MEL-28 = system: SK-MEL-28
SK-MEL-2 = system: SK-MEL-2
SK-MEL-5 = system: SK-MEL-5
SK-OV-3 = system: SK-OV-3
SN12C = system: SN12C
SNB-19 = system: SNB-19
SNB-75 = system: SNB-75
SNB-78 = system: SNB-78
SR = system: SR
SW-620 = system: SW-620
T47D = system: T47D
TK-10 = system: TK-10
U-251 = system: U-251
UACC-257 = system: UACC-257
UACC-62 = system: UACC-62
UO-31 = system: UO-31
XF498 = system: XF498
RXF 631 = system: RXF 631

CCN(CCO)CCNc1ccc(C)c2sc3ccccc3c(=O)c12
GI50 (786-0): 2960 nM (inactive)
GI50 (A498): 15000 nM (inactive)
GI50 (A549): 4300 nM (inactive)
GI50 (ACHN): 4260 nM (inactive)
GI50 (BT-549): 13400 nM (inactive)
GI50 (CAKI-1): 4730 nM (inactive)
GI50 (CCRF-CEM): 6040 nM (inactive)
GI50 (COLO 205): 1630 nM (inactive)
GI50 (DLD-1): 3830 nM (inactive)
GI50 (DMS-114): 7670 nM (inactive)
GI50 (DMS-273): 2360 nM (inactive)
GI50 (DU-145): 10200 nM (inactive)
GI50 (EKVX): 12500 nM (inactive)
GI50 (HCC 2998): 2280 nM (inactive)
GI50 (HCT-116): 2880 nM (inactive)
GI50 (HCT-15): 4150 nM
GI50 (HL-60): 3370 nM (inactive)
GI50 (HOP-18): 11900 nM (inactive)
GI50 (HOP-62): 3970 nM (inactive)
GI50 (HOP-92): 4370 nM (inactive)
GI50 (HT-29): 2520 nM (inactive)
GI50 (Hs-578T): 2250 nM (inactive)
GI50 (IGROV-1): 4200 nM (inactive)
GI50 (K562): 4310 nM (inactive)
GI50 (KM-20L2): 2590 nM (inactive)
GI50 (KM12): 3680 nM (inactive)
GI50 (LOX IMVI): 2240 nM (inactive)
GI50 (LXFL 529): 2770 nM (inactive)
GI50 (M14): 1780 nM (inactive)
GI50 (M19-MEL): 2000 nM (inactive)
GI50 (MCF7): 1800 nM (inactive)
GI50 (MDA-MB-231): 1880 nM (inactive)
GI50 (MDA-MB-435): 1960 nM (inactive)
GI50 (MDA-N): 1740 nM (inactive)
GI50 (MOLT-4): 4430 nM (inactive)
GI50 (Malme-3M): 3440 nM (inactive)
GI50 (NCI-H226): 4000 nM (inactive)
GI50 (NCI-H23): 8050 nM (inactive)
GI50 (NCI-H460): 1730 nM (inactive)
GI50 (NCI-H522): 4890 nM (inactive)
GI50 (NCI/ADR-RES): 3070 nM (inactive)
GI50 (OVCAR-3): 10200 nM (inactive)
GI50 (OVCAR-4): 7800 nM (inactive)
GI50 (OVCAR-5): 5150 nM (inactive)
GI50 (OVCAR-8): 4060 nM (inactive)
GI50 (PC-3): 3310 nM (inactive)
GI50 (RPMI-8226): 4280 nM (inactive)
GI50 (RXF 393): 1250 nM (inactive)
GI50 (SF-268): 6850 nM (inactive)
GI50 (SF-295): 3820 nM (inactive)
GI50 (SF-539): 3750 nM (inactive)
GI50 (SK-MEL-28): 2020 nM (inactive)
GI50 (SK-MEL-2): 3590 nM (inactive)
GI50 (SK-MEL-5): 2590 nM (inactive)
GI50 (SK-OV-3): 5660 nM (inactive)
GI50 (SN12C): 5240 nM (inactive)
GI50 (SNB-19): 11000 nM (inactive)
GI50 (SNB-75): 3010 nM (inactive)
GI50 (SNB-78): 7050 nM (inactive)
GI50 (SR): 6010 nM (inactive)
GI50 (SW-620): 2280 nM (inactive)
GI50 (T47D): 3010 nM (inactive)
GI50 (TK-10): 8810 nM (inactive)
GI50 (U-251): 3690 nM (inactive)
GI50 (UACC-257): 2750 nM (inactive)
GI50 (UACC-62): 1760 nM (inactive)
GI50 (UO-31): 5410 nM (inactive)
GI50 (XF498): 3310 nM (inactive)

CO/C1=C\C(C)=C\C(C)C(O)C(C)C/C(C)=C/C=C/C(OC)C(C(C)C(O)C(C)C2(O)CC(O)C(C)C(C(C)C)O2)OC1=O (stereo unspecified)
GI50 (786-0): 3.31 nM (active)
GI50 (A549): 1.01 nM (active)
GI50 (ACHN): 14.8 nM (active)
GI50 (CAKI-1): 2.05 nM (active)
GI50 (CCRF-CEM): 1.19 nM (active)
GI50 (COLO 205): 3.43 nM (active)
GI50 (DLD-1): 0.0705 nM (active)
GI50 (DMS-114): 4.58 nM (active)
GI50 (DMS-273): 0.261 nM (active)
GI50 (DU-145): 0.873 nM (active)
GI50 (EKVX): 56.6 nM (active)
GI50 (HCC 2998): 0.757 nM (active)
GI50 (HCT-116): 0.382 nM (active)
GI50 (HCT-15): 0.143 nM
GI50 (HL-60): 0.134 nM (active)
GI50 (HOP-18): 10100 nM (inactive)
GI50 (HOP-62): 0.051 nM (active)
GI50 (HOP-92): 0.41 nM (active)
GI50 (HT-29): 0.0664 nM (active)
GI50 (Hs-578T): 11 nM (active)
GI50 (IGROV-1): 2.23 nM (active)
GI50 (K562): 2.31 nM (active)
GI50 (KM-20L2): 0.0112 nM (active)
GI50 (KM12): 0.351 nM (active)
GI50 (LOX IMVI): 0.01 nM (active)
GI50 (LXFL 529): 0.323 nM (active)
GI50 (M14): 0.369 nM (active)
GI50 (M19-MEL): 3.74 nM (active)
GI50 (MCF7): 3.71 nM (active)
GI50 (MDA-MB-231): 0.382 nM (active)
GI50 (MDA-MB-435): 1.98 nM (active)
GI50 (MDA-N): 1.82 nM (active)
GI50 (MOLT-4): 2.2 nM (active)
GI50 (Malme-3M): 11.9 nM (active)
GI50 (NCI-H226): 13.4 nM (active)
GI50 (NCI-H23): 2.67 nM (active)
GI50 (NCI-H460): 0.401 nM (active)
GI50 (NCI-H522): 1.12 nM (active)
GI50 (OVCAR-3): 4.34 nM (active)
GI50 (OVCAR-4): 10 nM (active)
GI50 (OVCAR-5): 0.491 nM (active)
GI50 (OVCAR-8): 1.64 nM (active)
GI50 (PC-3): 2.52 nM (active)
GI50 (RPMI-8226): 1.51 nM (active)
GI50 (RXF 393): 5.26 nM (active)
GI50 (SF-268): 5.19 nM (active)
GI50 (SF-295): 1.63 nM (active)
GI50 (SF-539): 1.93 nM (active)
GI50 (SK-MEL-28): 66.1 nM (active)
GI50 (SK-MEL-2): 4.53 nM (active)
GI50 (SK-MEL-5): 0.396 nM (active)
GI50 (SK-OV-3): 684 nM (active)
GI50 (SN12C): 10 nM (active)
GI50 (SNB-19): 10900 nM (inactive)
GI50 (SNB-75): 8.57 nM (active)
GI50 (SNB-78): 10200 nM (inactive)
GI50 (SR): 0.0908 nM (active)
GI50 (SW-620): 0.471 nM (active)
GI50 (T47D): 2.97 nM (active)
GI50 (TK-10): 14500 nM (inactive)
GI50 (U-251): 7.06 nM (active)
GI50 (UACC-257): 6.34 nM (active)
GI50 (UACC-62): 2.8 nM (active)
GI50 (UO-31): 2.78 nM (active)
GI50 (XF498): 24.2 nM (active)

CC[C@H]1CN2CCc3cc(OC)c(OC)cc3[C@@H]2C[C@@H]1C[C@H]1NCCc2cc(OC)c(OC)cc21
GI50 (DLD-1): 35.8 nM (active)
GI50 (DMS-273): 43 nM (active)
GI50 (HCT-116): 14.9 nM (active)
GI50 (HL-60): 14.8 nM (active)
GI50 (HOP-18): 57.8 nM (active)
GI50 (K562): 10.4 nM (active)
GI50 (KM-20L2): 65.2 nM (active)
GI50 (LXFL 529): 27.6 nM (active)
GI50 (MCF7): 3.47 nM (active)
GI50 (MDA-MB-435): 18.8 nM (active)
GI50 (MOLT-4): 16.1 nM (active)
GI50 (NCI-H522): 10.9 nM (active)
GI50 (RXF 631): 31.1 nM (active)
